Results on 1 molecule are retold here after patent US11673139B2, “Microfluidic platforms for drug discovery” (UVic Industry Partnerships Inc., priority 2020, dated 2023).

SMILES strings stand for the structures.

This data set is described as follows: Passive diffusion of fluorophore through tripartite DIB network (intestinal space, enterocyte, blood compartments). In kind it is in vitro ADME. On the set-up: half-life: dose or concentration left out as unconfirmed. An excerpt: The first droplet 12 can mimic the intestinal space, the second droplet 14 can mimic an enterocyte, and the third droplet 16 can mimic the blood. The interior of each droplet 12, 14, 16 comprises a buffer (see Table 1) that mimics the pH and salt composition of the respective compartment. The barrier layer or artificial membrane between each pair of adjacent droplets can be an equal mixture of the phospholipids L-α-phosphatidylcholine (PC) and L-α-phosphatidylethanolamine (PE). The size of the droplets 116 can mimic the volume of human cells.
To prepare the lipid solutions, chloroform was removed from the lipid stock solutions by placing 10 mg (e.g., 400 μL of a 25 mgmL^−1 solution) of lipids in a 10 mL glass roundbottom flask, and rotating the flask under a stream of nitrogen gas to create a thin film. The flask was then placed in a desiccator under vacuum for 1 hour to remove residual solvent. […]
During use, the microfluidic devices were mounted in a heating platform set to 37° C. on a microscope stage (e.g., a Nikon Eclipse Ti2-E or a Nikon Eclipse Ti2-U inverted microscope) for visualization. […] Fluorescence and brightfield images for fluorescence experiments were captured using a measurement camera (e.g., a Hamamatsu ORCA Flash4.0 V3, with a Solis 1C cold white LED (e.g., from Thorlabs) and a GFP SemrockBrightline large field of view filter cube (e.g., from Nikon).
Reagents were introduced into the microfluidic devices using a pressure pump (e.g., an Elveflow OB1 MK3 pressure pump), four 1.5 mL Eppendorf tubes as reservoirs and four matched lengths of PTFE tubing. […] Following equilibration, the main chamber was monitored in Motion Blitz Director for quantification of device performance, and NIS Elements Advanced Research (Nikon, version 5.11.01) for fluorescence data collection. Following formation of a tripartite DIB network for a fluorescence experiment, flow was stopped from all reservoirs from within the Elveflow control software. […]

Consider `O=C1OC2(c3ccc(O)cc3Oc3cc(O)ccc32)c2ccccc21` [fluorescein], for which the “compartment preference in control triplets” value (100 µM) is given as “clear preference for pH 7.4 compartments”. In addition, where the note is “DIB network treated as two compartment model, intestinal space to enterocyte droplet, Equation (3), data of FIG. 6”, the Papp entry is recorded as “(5.5±0.8)×10^−5 cms^−1”. The half-life (DIB network, intestinal space droplet (pH 6.5) into enterocyte droplet (pH 7.4), 37° C., exponential curve fit, FIG. 5, read-out: half-life (t1/2) of the fluorophore in the intestinal space (converted)) was 1.8 min.
